In ChEMBL document CHEMBL1138805, “NO-sartans: a new class of pharmacodynamic hybrids as cardiovascular drugs” (J Med Chem, 2004):

Assays:
Format in all cases: functional
[1] = target: T1, Type-1 angiotensin II receptor (Homo sapiens) (UniProt P30556); experiment: Antagonistic activity against Angiotensin II receptor type 1
T1 sequence (whole entry): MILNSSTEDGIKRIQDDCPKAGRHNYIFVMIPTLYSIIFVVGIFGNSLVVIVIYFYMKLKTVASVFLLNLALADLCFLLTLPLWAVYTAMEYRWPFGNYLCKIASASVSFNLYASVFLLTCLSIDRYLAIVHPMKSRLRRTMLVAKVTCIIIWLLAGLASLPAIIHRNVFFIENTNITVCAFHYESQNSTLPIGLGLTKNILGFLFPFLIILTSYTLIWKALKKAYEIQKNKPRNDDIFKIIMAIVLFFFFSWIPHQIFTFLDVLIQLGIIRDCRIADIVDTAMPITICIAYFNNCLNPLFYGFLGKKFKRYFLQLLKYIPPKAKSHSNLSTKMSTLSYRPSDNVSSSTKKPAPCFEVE

[2] = target: T1, Type-1 angiotensin II receptor (Homo sapiens); experiment: Antagonistic activity against Angiotensin II receptor type 1 in presence of eserin
[3] = Vasorelaxing activity was determined
[4] = Nitric oxide releasing effect was determined
[5] = Vasorelaxing activity in the presence of eserin was determined

Row | Kb [1] [nM] | Kb [2] [nM] | Compound | Efficacy [3] [%] | Efficacy [4] | Efficacy [5]
1 | 6 | 40 | CCCCc1nc(Cl)c(COC(=O)c2cccc(CO[N+](=O)[O-])c2)n1Cc1ccc(-c2ccccc2-c2nn[nH]n2)cc1 | 92 | 34 | 91
2 | – | – | O=C(O)c1cccc(CO[N+](=O)[O-])c1 | 67 | – | 71
3 | 16 | – | CCCCc1nc(Cl)c(COC(=O)CCCCO[N+](=O)[O-])n1Cc1ccc(-c2ccccc2-c2nn[nH]n2)cc1 | 95 | 23 | –
